Data reported in ChEMBL document CHEMBL1201862, “PubChem BioAssay data set” (2004).
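1) Cells in 96-well plates. 2) Compound, 48 h, 5 concentrations. 3) Linear interpolation between surrounding doses. 4) Unreached endpoint = highest concentration. Here, GI50 denotes the concentration required for 50% inhibition of growth.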 Calls of active or inactive are those of the source. Rule as the data show it: active = GI50 up to about 1.1 µM and inactive = higher.

Legend:
Test in all cases: inhibition of tumour cell growth, NCI panel, 48 h
HT-29 = test system: HT-29
SN12C = test system: SN12C
SR = test system: SR
BT-549 = test system: BT-549
SK-OV-3 = test system: SK-OV-3
RXF 393 = test system: RXF 393
COLO 205 = test system: COLO 205
Malme-3M = test system: Malme-3M
M14 = test system: M14
MCF7 = test system: MCF7
HL-60 = test system: HL-60
UO-31 = test system: UO-31
IGROV-1 = test system: IGROV-1
MDA-N = test system: MDA-N
PC-3 = test system: PC-3
SF-539 = test system: SF-539
HOP-92 = test system: HOP-92
A549 = test system: A549
SK-MEL-2 = test system: SK-MEL-2
SNB-75 = test system: SNB-75

SMILES | GI50 (HT-29) | GI50 (SN12C) | GI50 (SR) | GI50 (BT-549) | GI50 (SK-OV-3) | GI50 (RXF 393) | GI50 (COLO 205) | GI50 (Malme-3M) | GI50 (M14) | GI50 (MCF7) | GI50 (HL-60) | GI50 (UO-31) | GI50 (IGROV-1) | GI50 (MDA-N) | GI50 (PC-3) | GI50 (SF-539) | GI50 (HOP-92) | GI50 (A549) | GI50 (SK-MEL-2) | GI50 (SNB-75)
CN(Cc1cc(Br)cc(Br)c1O)Cc1c(O)ccc2ccccc12 | 14.5 µM (inactive) | 14.9 µM (inactive) | 20.6 µM (inactive) | 22.4 µM (inactive) | 19.6 µM (inactive) | 19.4 µM (inactive) | 19.1 µM (inactive) | 21.7 µM (inactive) | 17.2 µM (inactive) | 26.4 µM (inactive) | 18.3 µM (inactive) | 14.9 µM (inactive) | 20.2 µM (inactive) | 16.3 µM (inactive) | 16.3 µM (inactive) | 16.1 µM (inactive) | 19.1 µM (inactive) | 17.7 µM (inactive) | 17.8 µM (inactive) | 19.1 µM (inactive)
c1cc(CSc2ncnc3[nH]cnc23)ccn1 | 48.3 µM (inactive) | > 100 µM (inactive) | 34.4 µM (inactive) | 73.8 µM (inactive) | 41.3 µM (inactive) | > 100 µM (inactive) | > 100 µM (inactive) | > 100 µM (inactive) | 34.8 µM (inactive) | 83.4 µM (inactive) | 67.9 µM (inactive) | 57.8 µM (inactive) | > 100 µM (inactive) | 42.9 µM (inactive) | > 100 µM (inactive) | 24.5 µM (inactive) | > 100 µM (inactive) | > 100 µM (inactive) | 80.5 µM (inactive) | > 100 µM (inactive)
Cn1c(=O)oc2cc(C(=O)CSC(=S)N3CCCCCC3)ccc21 | 18.7 µM (inactive) | > 100 µM (inactive) | 56.2 µM (inactive) | > 100 µM (inactive) | > 100 µM (inactive) | > 100 µM (inactive) | > 100 µM (inactive) | > 100 µM (inactive) | > 100 µM (inactive) | > 100 µM (inactive) | 51.8 µM (inactive) | > 100 µM (inactive) | > 100 µM (inactive) | > 100 µM (inactive) | 99.1 µM (inactive) | > 100 µM (inactive) | > 100 µM (inactive) | > 100 µM (inactive) | > 100 µM (inactive) | > 100 µM (inactive)
C=CC(C)CCC(C/C=C(\C)CCC=C(C)C)C(=C)CCCC(C)C (stereo not given) | > 100 µM (inactive) | > 100 µM (inactive) | > 100 µM (inactive) | > 100 µM (inactive) | > 100 µM (inactive) | > 100 µM (inactive) | > 100 µM (inactive) | > 100 µM (inactive) | > 100 µM (inactive) | > 100 µM (inactive) | > 100 µM (inactive) | > 100 µM (inactive) | > 100 µM (inactive) | > 100 µM (inactive) | > 100 µM (inactive) | > 100 µM (inactive) | > 100 µM (inactive) | > 100 µM (inactive) | > 100 µM (inactive) | > 100 µM (inactive)
C=CC[C@H]1[C@H](O[Si](C)(C)C(C)(C)C)C=CC(=O)[C@@H]1CC(=O)OCC | 9.06 µM (inactive) | 16.3 µM (inactive) | 15 µM (inactive) | 16.5 µM (inactive) | 18.3 µM (inactive) | 12.2 µM (inactive) | 15.3 µM (inactive) | 12.7 µM (inactive) | 12.7 µM (inactive) | 11.5 µM (inactive) | 8.04 µM (inactive) | 12.9 µM (inactive) | 16.4 µM (inactive) | 15.7 µM (inactive) | 9.59 µM (inactive) | 17.1 µM (inactive) | 11.5 µM (inactive) | 11.7 µM (inactive) | 14.9 µM (inactive) | 16.3 µM (inactive)
Fc1cc(C2=C[C@H](c3ccc4c(c3)OCO4)NC(=S)N2)c(Cl)cc1Cl | 27.9 µM (inactive) | 27.4 µM (inactive) | 31.9 µM (inactive) | 57 µM (inactive) | 57 µM (inactive) | 23 µM (inactive) | 20.9 µM (inactive) | 30.7 µM (inactive) | 40.4 µM (inactive) | 32.2 µM (inactive) | 0.0303 µM (active) | 39.2 µM (inactive) | 27.4 µM (inactive) | 35.6 µM (inactive) | 21.4 µM (inactive) | 46.7 µM (inactive) | 25.9 µM (inactive) | 35.6 µM (inactive) | 20.9 µM (inactive) | 20.8 µM (inactive)
Nc1nc(Cl)c(N)c(NCC2(CO)CC(OCc3ccccc3)C2)n1 (stereo not given) | > 100 µM (inactive) | > 100 µM (inactive) | 6.5 µM (inactive) | > 100 µM (inactive) | > 100 µM (inactive) | > 100 µM (inactive) | > 100 µM (inactive) | > 100 µM (inactive) | > 100 µM (inactive) | 11.3 µM (inactive) | > 100 µM (inactive) | > 100 µM (inactive) | > 100 µM (inactive) | > 100 µM (inactive) | > 100 µM (inactive) | > 100 µM (inactive) | > 100 µM (inactive) | > 100 µM (inactive) | > 100 µM (inactive) | 70 µM (inactive)
CC1(C)CN=C(Nc2ccc(Cl)cc2)S1 | 43.1 µM (inactive) | > 100 µM (inactive) | 65.6 µM (inactive) | > 100 µM (inactive) | > 100 µM (inactive) | > 100 µM (inactive) | > 100 µM (inactive) | > 100 µM (inactive) | > 100 µM (inactive) | > 100 µM (inactive) | 30.5 µM (inactive) | 37.2 µM (inactive) | > 100 µM (inactive) | > 100 µM (inactive) | > 100 µM (inactive) | > 100 µM (inactive) | 29.5 µM (inactive) | > 100 µM (inactive) | > 100 µM (inactive) | 70.8 µM (inactive)
C[n+]1c(-c2ccc(/C=N\NC(=O)c3ccc(C(=O)N/N=C/c4ccc(-c5cn6ccsc6[n+]5C)cc4)cc3)cc2)cn2ccsc21 | 15.8 µM (inactive) | 19.4 µM (inactive) | 17.3 µM (inactive) | 16.5 µM (inactive) | 46.5 µM (inactive) | 22.8 µM (inactive) | 25 µM (inactive) | 21 µM (inactive) | 17.8 µM (inactive) | 20.2 µM (inactive) | 16.5 µM (inactive) | 15.2 µM (inactive) | 20 µM (inactive) | 32.8 µM (inactive) | 17.4 µM (inactive) | 23.6 µM (inactive) | 14.8 µM (inactive) | 24.5 µM (inactive) | 30.8 µM (inactive) | 23.3 µM (inactive)
Cc1nc2ccccc2n1Cc1nnc(-c2ccccc2)o1 | 52.5 µM (inactive) | > 100 µM (inactive) | 43.6 µM (inactive) | > 100 µM (inactive) | > 100 µM (inactive) | 35.9 µM (inactive) | 74.6 µM (inactive) | > 100 µM (inactive) | > 100 µM (inactive) | 63.1 µM (inactive) | > 100 µM (inactive) | > 100 µM (inactive) | 72.9 µM (inactive) | 70.3 µM (inactive) | > 100 µM (inactive) | 27.2 µM (inactive) | > 100 µM (inactive) | 52.4 µM (inactive) | > 100 µM (inactive) | 46.3 µM (inactive)
